What was measured:
[1] = molecular target: T1, Bromodomain-containing protein 4 (Homo sapiens, UniProt O60885); assay: Inhibition of biotin-labelled histone peptide binding to His-tagged BRD4 (unknown origin) expressed in Escherichia coli after 30 mins by TR-FRET assay
MOLM-13 [2] = assay: Antiproliferative activity against human MOLM13 cells; format: functional, cell-based
[3] = Oral bioavailability in rat; format: ADME, organism-based; settings: in vivo
[4] = molecular target: T1, Bromodomain-containing protein 4; assay: Inhibition of BRD4 bromodomain 2 (unknown origin)
MV4-11 [5] = assay: Antitumor activity against human MV4-11 cells xenografted in po dosed mouse assessed as tumor regression administered once daily relative to control; format: functional
[6] = molecular target: T1, Bromodomain-containing protein 4; assay: Inhibition of BRD4 bromodomain 1 (unknown origin)
MV4-11 [7] = assay: Antiproliferative activity against human MV4-11 cells; format: functional, cell-based
[8] = molecular target: T1, Bromodomain-containing protein 4; assay: Inhibition of biotin-labelled tetra-acetylated histone peptide binding to recombinant human N-terminal His6-tagged BRD4 bromodomain 1 (1 to 477 residues) (unknown origin) expressed in Escherichia coli after 1 hr by TR-FRET assay
[9] = molecular target: T1, Bromodomain-containing protein 4; assay: Binding affinity to human partial length BRD4 bromodomain 1 long isoform (N44 to E168 residues) expressed in bacterial expression system by BROMOscan assay
[10] = molecular target: T1, Bromodomain-containing protein 4; assay: Inhibition of biotinylated histone H4 peptide binding to BRD4 bromodomain 2 (333 to 460 residues) (unknown origin) after 60 mins by Alphascreen method
[11] = molecular target: T1, Bromodomain-containing protein 4; assay: Inhibition of biotinylated histone H4 peptide binding to BRD4 bromodomain 1 (44 to 168 residues) (unknown origin) after 60 mins by Alphascreen method
OPM-2 = assay: Antitumor activity against human OPM2 cells xenografted in SCID Beige mouse assessed as tumor growth inhibition at 2.5 mg/kg, po administered once daily for 21 days relative to control; format: functional; settings: OPM-2, po, 504 h, read-out: TGI
MX1 [12] = assay: Antiproliferative activity against human MX1 cells after 72 hrs by CellTiter-Glo assay; format: functional, cell-based; settings: MX1, 72 h
[13] = molecular target: T1, Bromodomain-containing protein 4; assay: Inhibition of His-tagged BRD4 bromodomain 2 (E352 to M457 residues) (unknown origin) by Alexa-647 conjugated probe based TR-FRET assay; format: single protein
[14] = molecular target: T1, Bromodomain-containing protein 4; assay: Inhibition of His-tagged BRD4 bromodomain 1 (K57 to E168 residues) (unknown origin) by Alexa-647 conjugated probe based TR-FRET assay; format: single protein
[15] = molecular target: T1, Bromodomain-containing protein 4; assay: Inhibition of acetylated biotin-labelled RHGSGSK binding to N-terminal His6-tagged BRD4 bromodomain 1 (67 to 152 residues) (unknown origin) expressed in Escherichia coli after 1 hr by TR-FRET assay
[16] = molecular target: T1, Bromodomain-containing protein 4; assay: Inhibition of acetylated biotin-labelled RHGSGSK binding to BRD4 bromodomain 2 (unknown origin) after 1 hr by TR-FRET assay
[17] = molecular target: T1, Bromodomain-containing protein 4; assay: Inhibition of biotinylated Acetyl-Histone H4 (Lys5, 8, […], […]) peptide binding to GST-tagged BRD4 bromodomain 2 (333 to 460 residues) (unknown origin) after 30 mins by Alphascreen method
[18] = molecular target: T1, Bromodomain-containing protein 4
Description: Inhibition of biotinylated Acetyl-Histone H4 (Lys5, 8, 12, 16) peptide binding to GST-tagged BRD4 bromodomain 1 (44 to 168 residues) (unknown origin) after 30 mins by Alphascreen method

MX1 [19] = assay: Antiproliferative activity against human MX1 cells; format: functional, cell-based
[20] = molecular target: T1, Bromodomain-containing protein 4; assay: Inhibition of His6-tagged BRD4 (1 to 477 residues) (unknown origin) after 1 hr by Alexa fluor 488-conjugated probe based fluorescence anisotropy
[21] = molecular target: T1, Bromodomain-containing protein 4; assay: Inhibition of acetylated biotin-labelled RHGSGSK binding to N-terminal His6-tagged BRD4 bromodomain 1 (44 to 168 residues) (unknown origin) expressed in Escherichia coli after 1 hr by TR-FRET assay
MOLM-13 [22] = assay: Antiproliferative activity against human MOLM13 cells after 96 hrs by alamar blue assay; format: functional, cell-based; settings: MOLM-13, 96 h
[23] = Induction of apoptosis in human Mino cells after 48 hrs by Annexin-V/propidium iodide staining based assay; format: functional, cell-based
Z-138 = assay: Induction of apoptosis in human ibrutinib-resistant Z138 cells after 48 hrs by Annexin-V/propidium iodide staining based assay; format: functional, cell-based; settings: Z-138, 48 h
VCaP = assay: Antitumor activity against human VCaP cells xenografted in mouse assessed as tumor growth inhibition at 30 mg/kg, sc administered once every 3 days for 15 days; settings: 360 h, read-out: TGI

Work on `COc1ccc2c(ncc3nc(C4CCOCC4)n([C@H](C)COC(F)F)c32)c1-c1c(C)noc1C` yielded an IC50 [1] of 10 to 21 nM.

`COc1ccc2c([nH]c3nc(C)nc(-c4ccnc5ccccc45)c32)c1-c1c(C)noc1C` showed an IC50 (MOLM-13 [2]) of 53 nM, a bioavailability [3] of 93% and a Ki [4] of 1.4 nM. The Activity (MV4-11 [5]) was over 80%, the Ki [6] was 8.2 nM and the IC50 (MV4-11 [7]) was 26 nM.

`Cc1noc(C)c1-c1ccc2c(c1)C(C1CCCC1)(N1CCC[C@H](N)C1)C(=O)N2` (stereo partly drawn) gave an IC50 [8] of 8 nM and an IC50 (MV4-11 [7]) of 34 nM.

`Cc1sc2c(c1C)C(c1ccc(Cl)cc1)=N[C@@H](CC(=O)OCCCCCCO)c1nnc(C)n1-2` showed an IC50 [9] of 0.43 nM.

Compound `CC(=O)N1c2ccc(-c3ccc(-c4cnn(C5CC5)c4)c(OC[C@H]4CC4(F)F)c3)cc2CC[C@H]1C` has an IC50 [10] of under 50 nM and an IC50 [11] of under 100 nM.

For `Cn1cc2c3c(c[nH]c(=O)c31)CN(c1ccccn1)c1ccc(CS(C)(=O)=O)cc1-2`, the inhibition in vivo at 2.5 mg/kg (OPM-2) was 79%, the EC50 (MX1 [12]) was 16 nM and the IC50 [13] was 2.1 nM. It also gave an IC50 [14] of 1.1 nM.

In the case of `C[C@@H]1C(=O)N(C)c2ccc(-c3ccc(Nc4cccc(S(=O)(=O)N(C)C)c4)cc3)nc2N1C1CCN(C)CC1`, the IC50 [15] is reported as 20 nM and the IC50 [16] is reported as 43 nM.

For `CCS(=O)(=O)Nc1ccc(Oc2ccc(F)cc2F)c(-c2cn(C)c(=O)c3[nH]c(C#CCN(C)C)cc23)c1`, the Ki [17] was 3.3 nM, the Ki [18] was 1.3 nM and the EC50 (MX1 [19]) was 9.4 nM.

For `COc1cnc2c(ncc3[nH]c(=O)n(Cc4ccccc4OC(F)(F)F)c32)c1-c1c(C)noc1C`, the IC50 [20] was 158 nM.

`COc1cnc2c(ncc3[nH]c(=O)n(Cc4ccccc4)c32)c1-c1c(C)noc1C` gave an IC50 [20] of 316 nM.

In the case of `Cc1nnc(C[C@@H]2N=C(c3ccc(Cl)cc3)c3ccccc3-n3c(C)nnc32)o1`, the IC50 [21] is reported as 20 nM and the EC50 (MOLM-13 [22]) is reported as 140 nM.

For `Cc1ncsc1-c1ccc([C@H](C)NC(=O)[C@@H]2C[C@@H](O)CN2C(=O)[C@@H](NC(=O)COCCCOCCNC(=O)C[C@@H]2N=C(c3ccc(Cl)cc3)c3c(sc(C)c3C)-n3c(C)nnc32)C(C)(C)C)cc1`, the IC50 [23] was 17 nM, the IC50 (Z-138) was 142 nM and the inhibition in vivo at 30 mg/kg (VCaP) was 60%.

Reference: ChEMBL document CHEMBL4368853 (Medchemcomm, 2018)
